Measurements: US11584763B2, “Chromenopyridine derivatives as phosphatidylinositol phosphate kinase inhibitors” (HIBERCELL, INC., priority 2017, dated 2023)

Tests used:
PIP4K2B = molecular target: T1, PIP4K2B (Homo sapiens, UniProt P78356); assay: Trans-FI P kinase assay PIP4K2B (PIP4KtypeIIB inhibition assay); format: biochemical; conditions: compounds listed under IC50 bin headings; 100 uM GTP; read-out: Trans-FI P kinase assays: PIP4K2B IC50
T1 construct: made in house; host or cells: E. coli
T1 sequence (P78356 1-416): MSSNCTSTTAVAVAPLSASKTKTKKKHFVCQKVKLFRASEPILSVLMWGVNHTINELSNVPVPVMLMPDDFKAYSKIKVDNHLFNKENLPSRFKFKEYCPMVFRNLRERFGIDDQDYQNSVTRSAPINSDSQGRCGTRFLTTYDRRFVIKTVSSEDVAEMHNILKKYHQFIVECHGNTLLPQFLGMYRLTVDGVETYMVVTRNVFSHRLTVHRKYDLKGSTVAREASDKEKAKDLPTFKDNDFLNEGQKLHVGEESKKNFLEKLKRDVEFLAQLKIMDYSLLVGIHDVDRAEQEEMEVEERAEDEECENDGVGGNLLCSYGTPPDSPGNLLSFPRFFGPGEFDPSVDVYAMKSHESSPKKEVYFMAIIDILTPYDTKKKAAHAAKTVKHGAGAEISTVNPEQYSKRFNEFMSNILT
Source text: GST tagged PIP4KtypeIIA and B enzymes were overexpressed in E. Coli and purified to >80% homogeneity. Phosphatidyl inositol-5-phosphate (PI5P, Cat. #850152, Avanti Polar Lipids Inc.) was used as the lipid substrate and phosphatidyl ethanolamine (DOPE 18:1, Cat. #850725, Avanti Polar Lipids Inc.) was used as the carrier lipid for assays. Ultrapure ATP and GTP was purchased from Bellbrooke Labs. ADP Glo reagents were obtained from Promega. Transcreener FI reagent was obtained from Bellbrooke labs.
GST-tagged PIP4KtypeIIB (3.4 uL, 2.77 mg/mL) was diluted to 5 mL using HNE buffer to yield 5× enzyme stock (25 nM)
Lipid Preparation: In a 10 mL pyrex glass vial, 1 ug of PI5P and 1 ug of DOPE were suspended in 2.5 mL of HEPES buffer mix and 2.5 mL of H:E buffer. The contents were mixed and sonicated for 3 min to yield a translucent lipid stock.
Compound Preparation: Compounds were stored as 5 mM stocks in neat DMSO as room temperature in glass vials. 5 mM stocks were diluted to 2 mM and then serially diluted (3×) in neat DMSO in 96 well polypropylene plates. From the serially diluted stocks, 3 uL was delivered into 250 uL of 25% DMSO (in water) to generate 5× compound stocks. Typically, the highest compound conc. was 24 uM.
The assay volume was kept at 25 uL. To each well of the reaction plate, 10 uL of lipid stock (1:1 ratio PI5P:DOPE) was delivered. This was followed by the addition of 5 uL of compound in 25% DMSO. Then, to each well, 5 uL of 25 nM (5×) typeIIB enzyme was delivered. The contents were mixed well and incubated for 1 h at 27 C. After 1 h, reaction was initiated by adding 5 uL of 500 uM GTP and the contents were mixed well with a multi-channel pipetteman. The final concentration of the reagents are as follows: 50 mM HEPES, pH 7.3, 10 mM MgCl2, 20 mM NaCl, 0.01% v/v triton-X100, 5% DMSO, 100 uM GTP, 80 uM (2 ug) PI5P, 2 ug DOPE, and 5 nM PIP4KIIB Typically, the highest conc. of compounds was 4.8 uM and the lowest conc. was 0.
After 2 h, the reaction was quenched by adding 25 uL of transcreener FI reagent. The contents were incubated at RT for 1 h and the Fluorescence (Ex: 584 Em: 623) was read using Molecular Devices Paradigm plate reader. […] The blanks were averaged and subtracted from all other wells. Using a calibration curve, RFU was converted to uM GDP (product). IC50 was calculated by plotting the residual activity (expressed as % No inhibitor control) vs. log [Inh. conc.]

PIP4K 2A = molecular target: T2, PIP4K 2A (Homo sapiens, UniProt P48426); assay: ADP-glo kinase assay PIP4K 2A; format: biochemical; design: 4 nM PIP4K2A (full length protein, SignalChem); purchased SignalChem; conditions: compounds listed under IC50 bin headings
T2 sequence (P48426 1-406): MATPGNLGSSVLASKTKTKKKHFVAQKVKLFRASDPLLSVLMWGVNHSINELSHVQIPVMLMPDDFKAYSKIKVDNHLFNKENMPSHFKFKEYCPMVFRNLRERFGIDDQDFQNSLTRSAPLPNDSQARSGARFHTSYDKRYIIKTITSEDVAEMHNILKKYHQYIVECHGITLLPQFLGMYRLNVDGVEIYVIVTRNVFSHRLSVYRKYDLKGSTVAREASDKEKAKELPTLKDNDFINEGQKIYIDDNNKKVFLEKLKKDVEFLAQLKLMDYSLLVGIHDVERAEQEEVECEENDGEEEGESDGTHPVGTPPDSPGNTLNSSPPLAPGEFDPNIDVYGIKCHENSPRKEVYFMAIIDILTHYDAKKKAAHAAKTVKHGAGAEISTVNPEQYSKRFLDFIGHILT
Procedure: Dilution series of the compounds were prepared in DMSO at 100 times the final assay concentration (n1=n0/3 in 10 points). The compounds were further diluted to three times the assay concentration in assay buffer (20 mM MOPS pH 7.2, 25 mM magnesium chloride, 0.005% Tween 20). 6 μL of the diluted compounds were added to a 384 well assay plate followed by 9 μL of a mix consisting of 4 nM PIP4K2A (full length protein, SignalChem) and 100 μM PI(5)P diC8 (Tebu-Bio). Enzyme and compounds were pre-incubated at room temperature for 15 minutes.
Then 3 μL of a solution containing 60 μM ATP (Promega) in assay buffer was added to the wells containing compound and enzyme and mixing was performed by pipetting several times. The reaction was incubated at room temperature for 1 h. Then 18 μL of ADP-Glo™ Reagent (Promega) was added to stop the kinase reaction and deplete the unconsumed ATP, mixing was performed by pipetting several times. The plate was incubated at room temperature for 40 minutes before addition of 36 μL of Kinase Detection Reagent (Promega) to convert ADP to ATP and introduce luciferase and luciferin to detect ATP. The reaction was incubated at room temperature for 40 minutes before the luminescence was measured in a in a Victor 3V 1420 multilabel counter (Perkin Elmer).
Percent inhibition of the compounds as compared to dimethyl sulfoxide treated control samples was calculated. Compound concentration versus percent inhibition were fitted to generate IC50 values.

Row | SMILES | IC50 (PIP4K2B) [nM] | IC50 (PIP4K 2A) [nM]
1 | CC1Oc2cc(N3CCCC3=O)ccc2-c2cnc(Nc3cnc4c(c3)N3C(=O)C(C)(C)C[C@H]3CO4)cc21 (stereo partly drawn) [Example 156, (6aS)-8,8-dimethyl-2-((5-methyl-8-(2-oxopyrrolidin-1-yl)-5H-chromeno[4,3-c]pyridin-3-yl)amino)-6,6a,7,8-tetrahydro-9H-pyrido[2,3-b]pyrrolo[1,2-d][1,4]oxazin-9-one] | 1 to 10 | ≤ 1
2 | O=C1CCCN1c1ccc2c(c1)OCc1cc(Nc3cncc(N4CCNC4=O)c3)ncc1-2 [Example 160, 1-(5-((8-(2-oxopyrrolidin-1-yl)-5H-chromeno[4,3-c]pyridin-3-yl)amino)pyridin-3-yl)imidazolidin-2-one] | 10 to 100 | 1 to 10
3 | CC1Oc2cc(N3CCCC3=O)ccc2-c2cnc(Nc3cnc4cccc(S(C)(=O)=O)c4c3)cc21 (centres unmarked) [Example 92, 1-(5-methyl-3-((5-(methylsulfonyl)quinolin-3-yl)amino)-5H-chromeno[4,3-c]pyridin-8-yl)pyrrolidin-2-one] | > 1000 | 1 to 10
4 | CC1Oc2cc(N3CCCC3=O)ccc2-c2cnc(Nc3cnc4c(c3)N3C(=O)OC[C@H]3CO4)cc21 (stereo partly drawn) [Example 158, (3aR)-8-((5-methyl-8-(2-oxopyrrolidin-1-yl)-5H-chromeno[4,3-c]pyridin-3-yl)amino)-3a,4-dihydro-1H,3H-oxazolo[3,4-d]pyrido[2,3-b][1,4]oxazin-1-one] | 1 to 10 | ≤ 1
5 | CC1Oc2cc(N3CCCC3=O)ccc2-c2cncc(Nc3ccncc3)c21 (centres unmarked) [Example 203, 1-(5-methyl-4-(pyridin-4-ylamino)-5H-chromeno[4,3-c]pyridin-8-yl)pyrrolidin-2-one] | > 1000 | > 1000
6 | CC1Oc2cc(N3CCCC3=O)c(F)cc2-c2cnc(Nc3cnc4c(c3)N3C(=O)C(C)(C)C[C@H]3CO4)cc21 (stereo partly drawn) [Example 153, (6aS)-2-((9-fluoro-5-methyl-8-(2-oxopyrrolidin-1-yl)-5H-chromeno[4,3-c]pyridin-3-yl)amino)-8,8-dimethyl-6,6a,7,8-tetrahydro-9H-pyrido[2,3-b]pyrrolo[1,2-d][1,4]oxazin-9-one] | 1 to 10 | ≤ 1
7 | CC1(C)Oc2cc(N3CCCC3=O)ccc2-c2cnc(Nc3cnc4c(c3)N3C(=O)CC[C@@H]3CO4)cc21 [Example 183, (R)-2-((5,5-dimethyl-8-(2-oxopyrrolidin-1-yl)-5H-chromeno[4,3-c]pyridin-3-yl)amino)-6,6a,7,8-tetrahydro-9H-pyrido[2,3-b]pyrrolo[1,2-d][1,4]oxazin-9-one] | 1 to 10 | 1 to 10

Other lines, results leading:

Row | IC50 (PIP4K2B) [nM] | IC50 (PIP4K 2A) [nM] | SMILES
8 | 10 to 100 | ≤ 1 | CC1Oc2cc(N3CCCC3=O)ccc2-c2cnc(Nc3cncc(NC(=O)c4ccc5c(c4)COB5O)c3)cc21 (centres unmarked) [Example 116, 1-hydroxy-N-(5-((5-methyl-8-(2-oxopyrrolidin-1-yl)-5H-chromeno[4,3-c]pyridin-3-yl)amino)pyridin-3-yl)-1,3-dihydrobenzo[c][1,2]oxaborole-5-carboxamide]
9 | 1 to 10 | 1 to 10 | CC1Oc2cc(N3CCCC3=O)ccc2-c2cnc(Nc3cncc(NC(=O)c4ccc5ncoc5c4)c3)cc21 (centres unmarked) [Example 109, N-(5-((5-methyl-8-(2-oxopyrrolidin-1-yl)-5H-chromeno[4,3-c]pyridin-3-yl)amino)pyridin-3-yl)benzo[d]oxazole-6-carboxamide]
10 | 10 to 100 | 1 to 10 | CC1Oc2cc(N3CCCC3=O)ccc2-c2cnc(Nc3cncc(NC(=O)c4ccc5cc[nH]c5c4)c3)cc21 (centres unmarked) [Example 108, N-(5-((5-methyl-8-(2-oxopyrrolidin-1-yl)-5H-chromeno[4,3-c]pyridin-3-yl)amino)pyridin-3-yl)-1H-indole-6-carboxamide]
11 | 10 to 100 | 1 to 10 | CC(Cc1ccccc1)C(=O)Nc1cncc(Nc2cc3c(cn2)-c2ccc(N4CCCC4=O)cc2OC3C)c1 (centres unmarked) [Example 133, 2-methyl-N-(5-((5-methyl-8-(2-oxopyrrolidin-1-yl)-5H-chromeno[4,3-c]pyridin-3-yl)amino)pyridin-3-yl)-3-phenylpropanamide]
12 | 1 to 10 | ≤ 1 | CC1Oc2cc(N3CCCC3=O)ccc2-c2cnc(Nc3cncc(NC(=O)c4cnn5ccccc45)c3)cc21 (centres unmarked) [Example 144, N-(5-((5-methyl-8-(2-oxopyrrolidin-1-yl)-5H-chromeno[4,3-c]pyridin-3-yl)amino)pyridin-3-yl)pyrazolo[1,5-a]pyridine-3-carboxamide]
13 | 10 to 100 | 1 to 10 | CC1Oc2cc(N3CCCC3=O)ccc2-c2cnc(Nc3cncc(NC(=O)c4cn5ccccc5n4)c3)cc21 (centres unmarked) [Example 139, N-(5-((5-methyl-8-(2-oxopyrrolidin-1-yl)-5H-chromeno[4,3-c]pyridin-3-yl)amino)pyridin-3-yl)imidazo[1,2-a]pyridine-2-carboxamide]
14 | 10 to 100 | 1 to 10 | CC1Oc2cc(N3CCCC3=O)ccc2-c2cnc(Nc3cncc(NC(=O)CCc4ccccc4)c3)cc21 (centres unmarked) [Example 110, N-(5-((5-methyl-8-(2-oxopyrrolidin-1-yl)-5H-chromeno[4,3-c]pyridin-3-yl)amino)pyridin-3-yl)-3-phenylpropanamide]
15 | 10 to 100 | 1 to 10 | CNC(=O)Nc1cncc(Nc2cc3c(cn2)-c2ccc(N4CCCC4=O)cc2OC3C)c1 (centres unmarked) [Example 99, 1-methyl-3-(5-((5-methyl-8-(2-oxopyrrolidin-1-yl)-5H-chromeno[4,3-c]pyridin-3-yl)amino)pyridin-3-yl)urea]
16 | 10 to 100 | 1 to 10 | CC1Oc2cc(N3CCCC3=O)ccc2-c2cnc(Nc3cncc(NC(=O)c4ccc(NC(=O)/C=C/CN(C)C)cc4)c3)cc21 (centres unmarked) [Example 174, (E)-4-(4-(dimethylamino)but-2-enamido)-N-(5-((5-methyl-8-(2-oxopyrrolidin-1-yl)-5H-chromeno[4,3-c]pyridin-3-yl)amino)pyridin-3-yl)benzamide]
